Legend:
human Nav1.7 = molecular target: T1, human Nav1.7 (Homo sapiens, UniProt Q15858); assay: PatchXpress automated patch-clamp, inactivated state block of Nav1.7; assay type: cell-based; conditions: channels stably expressed in HEK 293 cells, 22° C., read-out: potency for the Nav 1.7 sodium ion channel (as measured by PatchXpress)
T1 construct: expressed in transfected cells
Experimental: (§1) Compounds were tested on human Nav1.7 and Nav1.5 channels stably expressed in HEK 293 cells. Activity toward Nav 1.7 and Nav 1.5 channels was assessed using the following assay methodology.
(§2) Sodium Current Measurements on the PatchXpress 7000®:
(§3) To measure inactivated state block of sodium channels, test compounds were characterized in an automated PatchXpress® assay (Molecular Devices) using a double-pulse protocol on human Nav1.7 and Nav1.5 channels stably expressed in HEK 293 cells. Cells were held at a potential 20 mV negative to V0.5 inact. An 8000 ms pre-pulse 7 mV positive to V0.5 inact was given followed by a hyperpolarizing 2 ms pulse to −120 mV and a 20 ms test pulse to −20 mV. Protocol was applied to cells in the absence, presence of compound and after washout. The temperature of PatchXpress instruments was maintained at 22° C. The following recording solutions were used. Internal solution (mM): 30 CsCl, 5 HEPES, 10 EGTA, 120 CsF, 5 NaF, 2 MgCl2. External solution (mM): 120 NMDG, 40 NaCl, 1 KCl, 0.5 MgCl2, 5 HEPES, 2.7 CaCl2.
(§4) For all electrophysiology experiments, offline analysis was used to correct for current rundown and to determine percent inhibition as a function of drug concentration. IC50 values were determined by fitting to the Hill equation.

human Nav1.5 = molecular target: T2, human Nav1.5 (Homo sapiens, UniProt Q14524); assay: PatchXpress automated patch-clamp, inactivated state block of Nav1.5 (selectivity); assay type: cell-based; conditions: determined by PatchXpress measurement, HEK 293 cells
T2 construct: expressed in transfected cells
T2 sequence (Q14524 whole entry): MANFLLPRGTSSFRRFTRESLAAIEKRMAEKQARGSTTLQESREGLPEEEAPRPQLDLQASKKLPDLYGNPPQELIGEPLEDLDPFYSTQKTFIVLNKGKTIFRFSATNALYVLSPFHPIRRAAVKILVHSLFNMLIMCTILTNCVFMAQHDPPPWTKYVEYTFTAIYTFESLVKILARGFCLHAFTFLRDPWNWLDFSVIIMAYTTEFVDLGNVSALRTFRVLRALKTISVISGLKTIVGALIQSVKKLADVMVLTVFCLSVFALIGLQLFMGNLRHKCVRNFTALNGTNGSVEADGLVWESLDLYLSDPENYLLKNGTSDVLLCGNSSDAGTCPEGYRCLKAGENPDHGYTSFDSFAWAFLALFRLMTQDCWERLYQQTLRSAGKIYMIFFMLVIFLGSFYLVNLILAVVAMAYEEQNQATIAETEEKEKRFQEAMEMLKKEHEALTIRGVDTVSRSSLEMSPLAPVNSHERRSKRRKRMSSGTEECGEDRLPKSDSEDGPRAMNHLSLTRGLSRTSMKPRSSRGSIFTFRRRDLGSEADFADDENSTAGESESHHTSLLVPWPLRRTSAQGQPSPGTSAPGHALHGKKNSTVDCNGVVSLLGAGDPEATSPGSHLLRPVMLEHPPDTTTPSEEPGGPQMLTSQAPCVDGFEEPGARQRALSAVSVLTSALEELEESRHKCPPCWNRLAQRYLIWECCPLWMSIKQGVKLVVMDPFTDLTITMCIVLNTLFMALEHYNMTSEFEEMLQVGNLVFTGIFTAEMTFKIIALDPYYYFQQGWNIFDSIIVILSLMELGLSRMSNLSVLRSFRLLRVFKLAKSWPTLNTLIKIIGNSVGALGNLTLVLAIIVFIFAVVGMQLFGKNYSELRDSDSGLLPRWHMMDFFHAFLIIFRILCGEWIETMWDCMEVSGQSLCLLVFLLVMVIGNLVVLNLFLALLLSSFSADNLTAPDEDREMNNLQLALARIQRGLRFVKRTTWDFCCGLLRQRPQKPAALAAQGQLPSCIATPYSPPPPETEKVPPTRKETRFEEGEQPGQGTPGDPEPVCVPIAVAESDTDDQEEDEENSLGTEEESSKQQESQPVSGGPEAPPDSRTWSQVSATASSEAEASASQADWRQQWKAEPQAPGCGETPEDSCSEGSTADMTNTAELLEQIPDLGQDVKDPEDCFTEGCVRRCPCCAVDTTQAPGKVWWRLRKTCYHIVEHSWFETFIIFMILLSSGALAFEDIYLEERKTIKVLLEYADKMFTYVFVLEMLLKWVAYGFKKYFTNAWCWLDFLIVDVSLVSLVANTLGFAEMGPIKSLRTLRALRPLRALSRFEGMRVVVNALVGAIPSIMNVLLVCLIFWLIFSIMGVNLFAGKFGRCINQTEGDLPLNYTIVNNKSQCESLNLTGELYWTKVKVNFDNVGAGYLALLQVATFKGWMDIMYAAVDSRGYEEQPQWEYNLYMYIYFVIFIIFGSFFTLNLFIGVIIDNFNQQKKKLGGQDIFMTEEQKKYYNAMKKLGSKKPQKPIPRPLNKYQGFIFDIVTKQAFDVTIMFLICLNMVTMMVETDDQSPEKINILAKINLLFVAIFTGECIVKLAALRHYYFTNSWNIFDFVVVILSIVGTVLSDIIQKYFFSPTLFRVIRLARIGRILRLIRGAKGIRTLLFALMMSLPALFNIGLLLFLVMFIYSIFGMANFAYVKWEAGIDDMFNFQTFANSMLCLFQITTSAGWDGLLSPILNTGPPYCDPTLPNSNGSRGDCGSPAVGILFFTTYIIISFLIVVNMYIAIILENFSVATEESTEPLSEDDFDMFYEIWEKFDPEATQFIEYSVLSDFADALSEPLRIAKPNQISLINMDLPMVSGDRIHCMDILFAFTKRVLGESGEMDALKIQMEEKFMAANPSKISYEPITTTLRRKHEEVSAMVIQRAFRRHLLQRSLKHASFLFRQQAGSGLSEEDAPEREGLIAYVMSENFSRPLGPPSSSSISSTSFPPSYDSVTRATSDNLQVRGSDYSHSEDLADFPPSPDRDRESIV
Experimental: as §1, §2, §3, §4

T1 sequence (Q15858 whole entry): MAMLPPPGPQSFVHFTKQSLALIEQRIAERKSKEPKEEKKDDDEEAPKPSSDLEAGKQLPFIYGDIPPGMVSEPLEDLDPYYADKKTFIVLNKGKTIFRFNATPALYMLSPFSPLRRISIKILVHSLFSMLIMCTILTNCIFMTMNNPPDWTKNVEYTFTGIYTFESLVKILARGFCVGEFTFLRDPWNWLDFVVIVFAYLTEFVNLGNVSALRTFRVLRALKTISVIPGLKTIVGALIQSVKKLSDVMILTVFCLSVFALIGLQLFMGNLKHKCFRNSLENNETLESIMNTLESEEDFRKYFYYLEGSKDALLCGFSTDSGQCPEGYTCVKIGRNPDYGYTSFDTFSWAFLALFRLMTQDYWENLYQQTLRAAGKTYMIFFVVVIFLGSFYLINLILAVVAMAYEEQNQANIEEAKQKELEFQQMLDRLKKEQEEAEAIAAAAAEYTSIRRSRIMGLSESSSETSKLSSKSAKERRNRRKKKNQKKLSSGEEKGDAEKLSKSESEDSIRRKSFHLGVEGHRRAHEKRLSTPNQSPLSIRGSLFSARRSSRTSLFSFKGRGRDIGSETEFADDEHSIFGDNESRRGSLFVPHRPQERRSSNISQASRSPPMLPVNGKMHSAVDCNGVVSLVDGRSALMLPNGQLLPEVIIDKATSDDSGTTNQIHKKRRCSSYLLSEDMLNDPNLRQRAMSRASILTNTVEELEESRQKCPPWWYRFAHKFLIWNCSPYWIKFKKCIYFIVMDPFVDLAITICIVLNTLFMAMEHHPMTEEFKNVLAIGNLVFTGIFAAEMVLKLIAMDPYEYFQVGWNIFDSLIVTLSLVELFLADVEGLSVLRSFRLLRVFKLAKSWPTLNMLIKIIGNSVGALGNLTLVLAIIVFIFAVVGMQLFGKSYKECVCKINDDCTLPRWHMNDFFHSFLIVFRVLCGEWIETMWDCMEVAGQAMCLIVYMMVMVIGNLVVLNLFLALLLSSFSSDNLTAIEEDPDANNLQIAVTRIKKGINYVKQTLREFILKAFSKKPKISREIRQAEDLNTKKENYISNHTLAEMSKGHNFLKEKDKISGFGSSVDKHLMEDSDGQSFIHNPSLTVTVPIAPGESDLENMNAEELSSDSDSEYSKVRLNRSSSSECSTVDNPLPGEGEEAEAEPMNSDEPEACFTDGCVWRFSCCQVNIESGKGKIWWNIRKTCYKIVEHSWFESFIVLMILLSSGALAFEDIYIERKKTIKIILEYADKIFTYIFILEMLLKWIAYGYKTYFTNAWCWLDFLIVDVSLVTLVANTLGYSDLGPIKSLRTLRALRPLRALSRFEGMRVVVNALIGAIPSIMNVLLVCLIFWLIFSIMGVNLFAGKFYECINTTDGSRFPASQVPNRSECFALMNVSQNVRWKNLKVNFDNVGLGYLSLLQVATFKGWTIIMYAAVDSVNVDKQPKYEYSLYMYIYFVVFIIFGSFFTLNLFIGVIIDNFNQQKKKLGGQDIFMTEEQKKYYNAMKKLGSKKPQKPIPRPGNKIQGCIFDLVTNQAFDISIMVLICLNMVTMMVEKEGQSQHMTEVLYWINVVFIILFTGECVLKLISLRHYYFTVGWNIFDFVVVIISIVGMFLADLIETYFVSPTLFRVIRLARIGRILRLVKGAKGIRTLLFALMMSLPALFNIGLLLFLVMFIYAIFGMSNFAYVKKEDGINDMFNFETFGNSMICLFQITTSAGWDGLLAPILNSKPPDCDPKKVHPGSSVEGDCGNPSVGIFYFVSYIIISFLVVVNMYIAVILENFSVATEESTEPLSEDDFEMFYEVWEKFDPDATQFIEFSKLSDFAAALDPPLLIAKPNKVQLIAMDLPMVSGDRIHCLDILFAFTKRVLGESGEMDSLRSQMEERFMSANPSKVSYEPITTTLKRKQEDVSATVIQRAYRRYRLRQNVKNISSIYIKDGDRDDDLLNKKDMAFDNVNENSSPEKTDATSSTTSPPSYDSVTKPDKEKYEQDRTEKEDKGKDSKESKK

| Structure (SMILES) | IC50 (human Nav1.7) | ratio of Nav1.7 potency:Nav 1.5 potency (human Nav1.5) |
| --- | --- | --- |
| COc1ccc(C[C@@H]2CN3CCC[C@]3(CNc3cc(F)c(S(=O)(=O)Nc4nccs4)cc3Cl)C2)cc1 (single isomer, unassigned) [Ex15-10-B] | 30 nM | 308 |
| COc1ccc(CC2CN3CCCC3(CNc3cc(F)c(S(=O)(=O)Nc4ncc(F)s4)cc3Cl)C2)cc1 (single isomer, unassigned) [Ex15-12-A, 5-chloro-2-fluoro-N-(5-fluorothiazol-2-yl)-4-((((2R,7aS or 2S,7aR)-2-(4-methoxybenzyl)hexahydro-1H-pyrrolizin-7a-yl)-methyl)amino)benzene-sulfonamide] | 8 nM | 282 |
| COc1ccc(CC2CN3CCCC3(CNc3cc(F)c(S(=O)(=O)Nc4ncc(F)s4)cc3Cl)C2)cc1 (single isomer, unassigned) [Ex15-12-B, 5-chloro-2-fluoro-N-(5-fluorothiazol-2-yl)-4-((((2S,7aR or 2R,7aS)-2-(4-methoxybenzyl)hexahydro-1H-pyrrolizin-7a-yl)methyl)amino)benzene-sulfonamide] | 66 nM | 99 |
| COc1ccc([C@@H]2CN3CCC[C@@]3(CNc3cc(F)c(S(=O)(=O)Nc4nccs4)cc3Cl)C2)cc1 (single isomer, unassigned) [Ex16-12-A] | 51 nM | 348 |
| COc1ccc([C@H]2CN3CCC[C@]3(CNc3cc(F)c(S(=O)(=O)Nc4nccs4)cc3Cl)C2)cc1 (single isomer, unassigned) [Ex16-12-B] | 21 nM | 708 |
| O=S(=O)(Nc1nccs1)c1cc(Cl)c(NCC23CCCCN2CCC3)cc1F (single isomer, unassigned) [Ex17-7-A, (S or R) 5-chloro-2-fluoro-4-(((octahydroindolizin-8a-yl)methyl)amino)-N-(thiazol-2-yl)benzenesulfonamide] | 113 nM | 450 |
| O=S(=O)(Nc1nccs1)c1cc(Cl)c(NCC23CCCCN2CCC3)cc1F (single isomer, unassigned) [Ex17-7-B, (R or S) 5-chloro-2-fluoro-4-(((octahydroindolizin-8a-yl)methyl)amino)-N-(thiazol-2-yl)benzenesulfonamide] | 185 nM | 193 |
| CCc1cc(S(=O)(=O)Nc2nccs2)c(F)cc1NC[C@@]12CCCN1C[C@H](Cc1ccc(OC)cc1)C2 (single isomer, unassigned) [Ex18-5-A] | 9 nM | 315 |
| CCc1cc(S(=O)(=O)Nc2nccs2)c(F)cc1NC[C@]12CCCN1C[C@@H](Cc1ccc(OC)cc1)C2 (single isomer, unassigned) [Ex18-5-B] | 40 nM | 359 |
| CCc1cc(S(=O)(=O)Nc2nccs2)c(F)cc1NCC12CCCN1CC(C)(C)C2 (single isomer, unassigned) [Ex18-9-A, (S or R)-4-(((2,2-dimethylhexahydro-1H-pyrrolizin-7a-yl)-methyl)-amino)-5-ethyl-2-fluoro-N-(thiazol-2-yl)-benzenesulfonamide] | 55 nM | 548 |
| CCc1cc(S(=O)(=O)Nc2nccs2)c(F)cc1NCC12CCCN1CC(C)(C)C2 (single isomer, unassigned) [Ex18-9-B, (R or S)-4-(((2,2-dimethylhexahydro-1H-pyrrolizin-7a-yl)methyl)-amino)-5-ethyl-2-fluoro-N-(thiazol-2-yl)-benzenesulfonamide] | 16 nM | 1870 |
| O=S(=O)(Nc1nncs1)c1cc(Cl)c(NCC23CCCN2CCC3)cc1F [Ex1-5, 5-chloro-2-fluoro-4-[(tetrahydro-1H-pyrrolizin-7a(5H)-ylmethyl)amino]-N-(1,3,4-thiadiazol-2-yl)benzenesulfonamide] | 370 nM | 81 |
| N#Cc1cc(S(=O)(=O)Nc2ncns2)ccc1NCC12CCCN1CCC2 [Ex1-6, 3-cyano-4-[(tetrahydro-1H-pyrrolizin-7a(5H)-ylmethyl)amino]-N-(1,2,4-thiadiazol-5-yl)benzenesulfonamide] | 86 nM | 349 |
| N#Cc1cc(S(=O)(=O)Nc2nccs2)c(F)cc1NCC12CCCN1CCC2 [Ex1-10, 5-cyano-2-fluoro-4-[(tetrahydro-1H-pyrrolizin-7a(5H)-ylmethyl)amino]-N-(1,3-thiazol-2-yl)benzenesulfonamide] | 221 nM | 94 |
| N#Cc1cc(S(=O)(=O)Nc2ncc(Cl)s2)c(F)cc1NCC12CCCN1CCC2 [Ex1-11, N-(5-chloro-1,3-thiazol-2-yl)-5-cyano-2-fluoro-4-[(tetrahydro-1H-pyrrolizin-7a(5H)-ylmethyl)amino]benzene-sulfonamide] | 35 nM | 469 |
| O=S(=O)(Nc1ncc(Br)s1)c1cc(Cl)c(NCC23CCCN2CCC3)cc1F [Ex1-13, N-(5-bromothiazol-2-yl)-5-chloro-2-fluoro-4-(((hexahydro-1H-pyrrolizin-7a-yl)methyl)amino)benzene-sulfonamide] | 43 nM | 1507 |
| O=S(=O)(Nc1nccs1)c1ccc(NCC23CCCN2CCC3)c(Cl)c1 [Ex1-14, 3-chloro-4-(((hexahydro-1H-pyrrolizin-7a-yl)methyl)amino)-N-(thiazol-2-yl)benzenesulfonamide] | 48 nM | 337 |
| Cc1cc(S(=O)(=O)Nc2nccs2)c(F)cc1NCC12CCCN1CCC2 [Ex1-15, 2-fluoro-4-(((hexahydro-1H-pyrrolizin-7a-yl)methyl)amino)-5-methyl-N-(thiazol-2-yl)benzenesulfonamide] | 34 nM | 1149 |
| CCOC(=O)c1cnc(NS(=O)(=O)c2cc(Cl)c(NCC34CCCN3CCC4)cc2F)s1 [Ex1-16, ethyl 2-(5-chloro-2-fluoro-4-(((hexahydro-1H-pyrrolizin-7a-yl)methyl)amino)phenylsulfonamido)thiazole-5-carboxylate] | 62 nM | 484 |
| O=S(=O)(Nc1nccs1)c1cc(Br)c(NCC23CCCN2CCC3)cc1F [Ex1-17, 5-bromo-2-fluoro-4-(((hexahydro-1H-pyrrolizin-7a-yl)methyl)amino)-N-(thiazol-2-yl)benzenesulfonamide] | 5 nM | 670 |
| O=S(=O)(Nc1nccs1)c1cc(F)c(NCC23CCCN2CCC3)cc1Cl [Ex1-18, 2-chloro-5-fluoro-4-(((hexahydro-1H-pyrrolizin-7a-yl)methyl)amino)-N-(thiazol-2-yl)benzenesulfonamide] | 129 nM | 462 |
| O=S(=O)(Nc1nccs1)c1ccc(NCC23CCCN2CCC3)c(C(F)(F)F)c1 [Ex1-20, 4-(((hexahydro-1H-pyrrolizin-7a-yl)methyl)amino)-N-(thiazol-2-yl)-3-(trifluoromethyl)benzene-sulfonamide] | 14 nM | 765 |
| N#Cc1cc(S(=O)(=O)Nc2nccs2)ccc1NCC12CCCN1CCC2 [Ex2-2, 3-cyano-4-[(tetrahydro-1H-pyrrolizin-7a(5H)-ylmethyl)amino]-N-(1,3-thiazol-2-yl)benzenesulfonamide] | 40 nM | 746 |
| N#Cc1cc(S(=O)(=O)Nc2cccc(F)n2)ccc1NCC12CCCN1CCC2 [Ex2-3, 3-cyano-N-(6-fluoropyridin-2-yl)-4-[(tetrahydro-1H-pyrrolizin-7a(5H)-ylmethyl)amino]benzene-sulfonamide] | 168 nM | 18 |
| O=S(=O)(Nc1cccc(F)n1)c1cc(F)c(NCC23CCCN2CCC3)cc1F [Ex2-4, 2,5-difluoro-N-(6-fluoropyridin-2-yl)-4-[(tetrahydro-1H-pyrrolizin-7a(5H)-ylmethyl)amino]benzene-sulfonamide] | 350 nM | 269 |
| N#Cc1cc(S(=O)(=O)Nc2ncc(Cl)s2)ccc1NCC12CCCN1CCC2 [Ex3-4, N-(5-chloro-1,3-thiazol-2-yl)-3-cyano-4-[(tetrahydro-1H-pyrrolizin-7a(5H)-ylmethyl)amino]benzene-sulfonamide] | 151 nM | 199 |
| O=S(=O)(Nc1cccnn1)c1cc(Cl)c(NCC23CCCN2CCC3)cc1F [Ex3-5, 5-chloro-2-fluoro-N-(pyridazin-3-yl)-4-[(tetrahydro-1H-pyrrolizin-7a(5H)-ylmethyl)amino]benzene-sulfonamide] | 1000 nM | 100 |
| O=S(=O)(Nc1ccc(F)cn1)c1cc(Cl)c(NCC23CCCN2CCC3)cc1F [Ex3-7, 5-chloro-2-fluoro-N-(5-fluoropyridin-2-yl)-4-[(tetrahydro-1H-pyrrolizin-7a(5H)-ylmethyl)amino]benzene-sulfonamide] | 320 nM | 94 |

Source: US9586968B2, “Bicycloamine-substituted-N-benzenesulfonamide compounds with selective activity in voltage-gated sodium channels” (Merck Sharp & Dohme Corp., priority 2013, dated 2017)
